Experimental data reported in article PMC7655540, “Accumulation of Target Gene Mutations Confers Multiple Resistance to ALS, ACCase, and EPSPS Inhibitors in Lolium Species in Chile” (Frontiers in Plant Science, 2020).
Where two headings read alike, the source gives them in different places.

Columns and labels:
ACCase [1] = molecular target: T1, ACCase (Lolium perenne, UniProt Z9B5O7SYH2); assay: ATP-dependent incorporation of […]-bicarbonate into malonyl-CoA; type: biochemical; settings: R population extract, heterogeneous alleles; 5 mM acetyl-CoA, pH 8.3, 34°C; stated gain; read-out: I50
T1 construct: native enzyme, young leaf extract, ammonium sulfate fraction, desalted; isoforms not separated

ACCase [2] = molecular target: T2, ACCase (Lolium multiflorum, UniProt A0AAD8WR50); assay: as above; type: biochemical; settings: S population; partially purified leaf extract; 5 mM acetyl-CoA, pH 8.3, 34°C; diclofop-acid per methods; read-out: I50
T2 construct: gene QYE76_038327; native enzyme, young leaf extract, ammonium sulfate fraction, desalted; isoforms not separated

ACCase [3] = molecular target: T1, ACCase; assay: as above; type: biochemical; settings: S population; partially purified leaf extract; 5 mM acetyl-CoA, pH 8.3, 34°C; diclofop-acid per methods; read-out: I50
EPSPS = assay: phosphate release, EnzCheck phosphate assay, […] nm; type: biochemical, Lolium perenne; settings: S population; partially purified leaf extract; pH 7.0; read-out: I50

T2 sequence (A0AAD8WR50 1-2320): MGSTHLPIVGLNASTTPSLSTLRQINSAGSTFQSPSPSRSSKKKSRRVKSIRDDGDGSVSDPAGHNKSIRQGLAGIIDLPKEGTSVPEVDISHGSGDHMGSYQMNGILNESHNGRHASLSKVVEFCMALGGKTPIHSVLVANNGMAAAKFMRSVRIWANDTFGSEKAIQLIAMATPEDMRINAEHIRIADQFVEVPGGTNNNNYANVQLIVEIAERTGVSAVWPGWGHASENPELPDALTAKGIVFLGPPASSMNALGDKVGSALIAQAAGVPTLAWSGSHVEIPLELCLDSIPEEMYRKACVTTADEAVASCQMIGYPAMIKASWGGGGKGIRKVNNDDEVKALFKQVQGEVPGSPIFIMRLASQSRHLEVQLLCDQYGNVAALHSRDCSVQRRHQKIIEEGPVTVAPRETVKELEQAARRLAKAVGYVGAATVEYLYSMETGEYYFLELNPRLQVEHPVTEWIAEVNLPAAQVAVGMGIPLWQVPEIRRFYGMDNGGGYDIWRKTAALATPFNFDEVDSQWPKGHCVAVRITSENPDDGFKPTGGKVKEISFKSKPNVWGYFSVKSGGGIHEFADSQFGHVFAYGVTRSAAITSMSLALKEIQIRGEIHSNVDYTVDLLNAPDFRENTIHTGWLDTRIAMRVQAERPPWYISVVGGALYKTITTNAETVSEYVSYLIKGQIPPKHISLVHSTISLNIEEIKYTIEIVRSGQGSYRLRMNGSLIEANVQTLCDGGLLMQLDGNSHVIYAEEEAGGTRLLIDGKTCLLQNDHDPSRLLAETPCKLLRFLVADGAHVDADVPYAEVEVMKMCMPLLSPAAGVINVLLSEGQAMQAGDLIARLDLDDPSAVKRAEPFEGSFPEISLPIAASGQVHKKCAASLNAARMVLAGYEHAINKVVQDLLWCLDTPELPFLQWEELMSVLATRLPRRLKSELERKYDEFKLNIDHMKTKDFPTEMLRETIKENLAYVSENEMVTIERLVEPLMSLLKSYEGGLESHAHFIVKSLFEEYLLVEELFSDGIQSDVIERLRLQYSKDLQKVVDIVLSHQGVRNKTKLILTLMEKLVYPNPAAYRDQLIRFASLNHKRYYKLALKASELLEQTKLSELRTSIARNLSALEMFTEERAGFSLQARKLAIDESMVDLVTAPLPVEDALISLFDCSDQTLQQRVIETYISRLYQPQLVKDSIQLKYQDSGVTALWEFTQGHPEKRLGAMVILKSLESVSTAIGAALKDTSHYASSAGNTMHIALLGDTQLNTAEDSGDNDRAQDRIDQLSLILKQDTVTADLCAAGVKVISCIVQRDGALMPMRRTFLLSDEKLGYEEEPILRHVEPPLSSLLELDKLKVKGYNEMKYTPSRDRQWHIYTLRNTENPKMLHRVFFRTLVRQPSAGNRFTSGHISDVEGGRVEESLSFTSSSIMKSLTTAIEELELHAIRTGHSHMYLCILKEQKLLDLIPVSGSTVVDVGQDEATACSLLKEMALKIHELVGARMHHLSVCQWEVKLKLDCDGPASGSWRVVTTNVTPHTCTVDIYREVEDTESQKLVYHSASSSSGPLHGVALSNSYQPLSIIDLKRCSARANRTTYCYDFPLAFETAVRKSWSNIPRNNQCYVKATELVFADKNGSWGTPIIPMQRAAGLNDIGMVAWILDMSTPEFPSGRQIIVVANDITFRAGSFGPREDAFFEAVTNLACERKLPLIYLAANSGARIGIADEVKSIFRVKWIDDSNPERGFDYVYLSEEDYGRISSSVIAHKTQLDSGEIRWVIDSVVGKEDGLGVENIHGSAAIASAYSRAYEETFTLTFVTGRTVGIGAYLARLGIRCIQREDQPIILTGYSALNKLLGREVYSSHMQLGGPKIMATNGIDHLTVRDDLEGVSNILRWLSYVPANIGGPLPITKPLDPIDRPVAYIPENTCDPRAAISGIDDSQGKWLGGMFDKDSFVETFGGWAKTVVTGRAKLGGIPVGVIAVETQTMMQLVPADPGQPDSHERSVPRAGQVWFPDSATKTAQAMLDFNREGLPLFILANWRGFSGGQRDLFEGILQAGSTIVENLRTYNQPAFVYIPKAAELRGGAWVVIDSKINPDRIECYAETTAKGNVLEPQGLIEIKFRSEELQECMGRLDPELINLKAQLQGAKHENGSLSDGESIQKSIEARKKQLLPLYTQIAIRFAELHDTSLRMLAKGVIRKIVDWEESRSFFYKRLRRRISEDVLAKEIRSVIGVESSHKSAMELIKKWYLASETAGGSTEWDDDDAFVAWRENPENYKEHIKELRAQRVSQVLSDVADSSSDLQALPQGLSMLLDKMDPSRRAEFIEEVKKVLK

Row | Structure (SMILES) | IC50 (ACCase [1]) [µM] | IC50 (ACCase [2]) [µM] | IC50 (ACCase [3]) [µM] | IC50 (EPSPS) [µM]
1 | CC(Oc1ccc(Oc2ccc(Cl)cc2Cl)cc1)C(=O)O (stereo not shown) [diclofop-acid] | 68.6 | 4.6 | 6.2 | 
2 | O=C(O)CNCP(=O)(O)O [glyphosate] |  |  |  | 7.8
